Where a name gives a salt, the structure may show the parent alone. The source made the active and inactive calls.

The record followed here is ChEMBL document CHEMBL1201862, “PubChem BioAssay data set” (2004).

Data set [1] addresses Cytochrome P450 2C19 (Homo sapiens, UniProt P33261). The data set can be described thus: Cytochrome panel assay with activity outcomes. Panel member name: p450-cyp2c19 Compounds with AC50 equal or less than 10 uM are considered active. The data set is classed as functional.
In data set [2] the target is Cytochrome P450 2D6 (Homo sapiens, UniProt P10635).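 Note: CYP2D6 member of a cytochrome P450 panel assay.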
Chain of Cytochrome P450 2D6 (P10635 whole entry): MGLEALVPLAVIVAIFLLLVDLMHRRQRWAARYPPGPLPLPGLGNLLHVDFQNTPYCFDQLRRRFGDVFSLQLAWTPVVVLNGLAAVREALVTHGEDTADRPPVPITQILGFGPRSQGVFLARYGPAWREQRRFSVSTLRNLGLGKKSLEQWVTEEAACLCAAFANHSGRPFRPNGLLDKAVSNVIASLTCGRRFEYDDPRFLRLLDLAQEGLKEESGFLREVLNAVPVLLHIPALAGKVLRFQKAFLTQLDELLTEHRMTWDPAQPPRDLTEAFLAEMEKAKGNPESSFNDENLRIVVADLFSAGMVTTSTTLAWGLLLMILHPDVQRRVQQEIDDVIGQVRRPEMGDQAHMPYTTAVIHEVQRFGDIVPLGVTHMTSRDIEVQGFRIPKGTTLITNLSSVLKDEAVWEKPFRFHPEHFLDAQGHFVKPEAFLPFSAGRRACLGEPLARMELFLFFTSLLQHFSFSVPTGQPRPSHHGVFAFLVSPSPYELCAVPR
Data set [3] deals with Luciferin 4-monooxygenase (Photinus pyralis, UniProt P08659). The data set can be described thus: firefly luciferase enzyme inhibitors, dose response, biochemical, luminescence (AID 1891).
Chain of Luciferin 4-monooxygenase (P08659 whole entry): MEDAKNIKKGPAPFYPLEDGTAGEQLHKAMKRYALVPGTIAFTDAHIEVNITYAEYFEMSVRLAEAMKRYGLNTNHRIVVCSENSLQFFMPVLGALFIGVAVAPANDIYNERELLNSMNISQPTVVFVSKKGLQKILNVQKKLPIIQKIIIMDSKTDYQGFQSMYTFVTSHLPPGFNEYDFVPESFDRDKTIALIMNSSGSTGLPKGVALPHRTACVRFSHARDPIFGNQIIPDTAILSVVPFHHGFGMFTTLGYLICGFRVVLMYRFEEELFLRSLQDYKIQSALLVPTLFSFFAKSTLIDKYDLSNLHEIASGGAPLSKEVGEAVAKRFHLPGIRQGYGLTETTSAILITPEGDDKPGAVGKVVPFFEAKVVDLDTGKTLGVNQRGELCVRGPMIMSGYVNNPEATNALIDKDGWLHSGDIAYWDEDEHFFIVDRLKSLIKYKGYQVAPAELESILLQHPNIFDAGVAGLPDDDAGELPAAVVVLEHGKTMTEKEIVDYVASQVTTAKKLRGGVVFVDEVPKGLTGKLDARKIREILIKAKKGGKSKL
The nature of data set [4]: Luminescence Cell-Based Dose Confirmation HTS to Identify Inhibitors of Platelet Dense Granule Release. [Related pubchem assays: 1663 (Primary HTS), 1678 (Summary of Project)]. The class given is functional.
Data set [5] is described as follows: NIH-3T3 fibroblast cytotoxicity, dose response, cytotoxicity control, cell-based, fluorescence, Alamar Blue, secondary assay (AID 2327).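 Note: NIH-3T3 mouse fibroblasts cultured with fluconazole at 8 µg/mL.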 The data set is classed as functional.
Data set [6] in a line: C. albicans growth with fluconazole, confirmation, fluorescence, retest (AID 2467). The data set is classed as functional, cell-based.
The target of data set [7] is Cytochrome P450 3A4 (Homo sapiens, UniProt P08684).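 Note: CYP3A4 tested as one member of a cytochrome P450 panel screen.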
Chain of Cytochrome P450 3A4 (P08684 whole entry): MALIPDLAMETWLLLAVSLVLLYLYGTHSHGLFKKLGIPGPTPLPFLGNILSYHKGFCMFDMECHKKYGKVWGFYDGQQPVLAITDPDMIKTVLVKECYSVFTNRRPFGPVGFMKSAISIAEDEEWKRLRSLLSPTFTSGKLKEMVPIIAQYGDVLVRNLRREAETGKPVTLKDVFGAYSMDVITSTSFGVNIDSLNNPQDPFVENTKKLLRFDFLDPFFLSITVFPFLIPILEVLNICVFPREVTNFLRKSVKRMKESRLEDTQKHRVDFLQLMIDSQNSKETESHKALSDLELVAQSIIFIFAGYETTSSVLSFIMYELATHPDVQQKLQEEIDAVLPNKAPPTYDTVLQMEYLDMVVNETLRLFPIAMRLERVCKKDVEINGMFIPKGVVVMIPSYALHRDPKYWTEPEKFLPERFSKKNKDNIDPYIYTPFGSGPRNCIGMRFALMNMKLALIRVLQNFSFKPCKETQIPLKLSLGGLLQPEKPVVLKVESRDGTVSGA
In data set [8] the target is Cytochrome P450 2C9 (Homo sapiens, UniProt P11712).
Chain of Cytochrome P450 2C9 (P11712 whole entry): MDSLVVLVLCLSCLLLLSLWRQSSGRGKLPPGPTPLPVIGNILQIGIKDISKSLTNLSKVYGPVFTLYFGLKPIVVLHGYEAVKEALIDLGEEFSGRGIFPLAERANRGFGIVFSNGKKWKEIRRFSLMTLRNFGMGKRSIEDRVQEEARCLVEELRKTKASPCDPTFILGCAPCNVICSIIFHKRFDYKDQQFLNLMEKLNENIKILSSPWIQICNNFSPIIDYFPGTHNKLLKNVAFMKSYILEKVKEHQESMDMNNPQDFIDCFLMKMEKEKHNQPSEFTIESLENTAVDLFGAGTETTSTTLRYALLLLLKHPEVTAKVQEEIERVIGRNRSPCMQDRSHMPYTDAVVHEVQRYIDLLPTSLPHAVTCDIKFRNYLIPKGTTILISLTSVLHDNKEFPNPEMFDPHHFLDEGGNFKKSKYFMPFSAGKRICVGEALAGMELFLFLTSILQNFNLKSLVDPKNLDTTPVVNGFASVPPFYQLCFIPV
In data set [9] the test system is Streptococcus sp. 'group A'. Put plainly: growth inhibition of control SK(-) GAS strain, dose response, counter-screen for streptokinase expression inhibitor project, luminescence, kanamycin, BacTiterGlo, confirmation (AID 1900). The class given is functional, organism-based.
The target in data set [10] is T1, Streptokinase A (Streptococcus pyogenes serotype M1, UniProt P10520).
T1 sequence (P10520 whole entry): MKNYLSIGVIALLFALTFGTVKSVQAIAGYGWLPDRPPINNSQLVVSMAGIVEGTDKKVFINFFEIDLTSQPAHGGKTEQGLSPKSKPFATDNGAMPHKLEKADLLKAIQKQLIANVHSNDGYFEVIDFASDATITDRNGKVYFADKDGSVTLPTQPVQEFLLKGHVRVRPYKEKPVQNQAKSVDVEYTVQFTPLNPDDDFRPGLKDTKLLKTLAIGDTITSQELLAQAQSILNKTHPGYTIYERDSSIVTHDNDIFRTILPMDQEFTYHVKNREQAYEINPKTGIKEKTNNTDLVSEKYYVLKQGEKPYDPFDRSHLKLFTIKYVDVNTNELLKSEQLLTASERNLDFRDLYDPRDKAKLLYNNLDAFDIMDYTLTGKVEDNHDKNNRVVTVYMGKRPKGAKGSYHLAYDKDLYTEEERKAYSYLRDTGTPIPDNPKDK
The data set can be described thus: S. pyogenes streptokinase expression inhibitors, potency, dose response, plasminogen activation absorbance, OD405 (AID 1914).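 Note: secreted streptokinase activity via plasminogen activation per viability signal from cell pellet.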 The class given is functional, Streptococcus pyogenes M1 GAS.

Data set [11] deals with Streptococcus. Put plainly: Group A Streptococcus viability loss, dose response, counter-screen for streptokinase expression inhibitor project, luminescence, BacTiterGlo (AID 1915).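 Note: potency for reduction of bacterial viability or growth.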 The class given is functional, organism-based.
Data set [12] addresses T2, Corticotropin-releasing factor receptor 2/Corticotropin-releasing factor-binding protein (Homo sapiens, UniProt P24387+Q13324).
T2 sequence (Q13324 whole entry): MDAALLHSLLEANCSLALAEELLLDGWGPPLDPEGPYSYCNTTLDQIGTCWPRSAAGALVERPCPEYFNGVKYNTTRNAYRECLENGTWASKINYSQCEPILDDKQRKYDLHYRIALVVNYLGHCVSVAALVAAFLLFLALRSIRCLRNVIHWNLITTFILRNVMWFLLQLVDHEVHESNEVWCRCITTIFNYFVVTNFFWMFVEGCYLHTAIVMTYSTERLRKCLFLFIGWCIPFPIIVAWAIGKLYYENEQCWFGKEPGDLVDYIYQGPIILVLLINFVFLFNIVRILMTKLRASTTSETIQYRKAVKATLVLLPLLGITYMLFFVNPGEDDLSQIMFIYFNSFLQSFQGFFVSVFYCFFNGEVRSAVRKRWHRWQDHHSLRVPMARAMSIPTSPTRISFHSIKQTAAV
T2 sequence (P24387 whole entry): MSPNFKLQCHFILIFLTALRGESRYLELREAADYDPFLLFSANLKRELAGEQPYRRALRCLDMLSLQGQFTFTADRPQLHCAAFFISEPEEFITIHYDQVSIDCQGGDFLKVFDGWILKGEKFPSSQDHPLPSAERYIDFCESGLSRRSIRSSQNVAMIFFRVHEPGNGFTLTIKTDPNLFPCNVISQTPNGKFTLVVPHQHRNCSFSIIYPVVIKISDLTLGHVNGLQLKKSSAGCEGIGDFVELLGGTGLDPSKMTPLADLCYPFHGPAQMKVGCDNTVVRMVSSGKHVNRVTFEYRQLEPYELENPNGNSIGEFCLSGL
The data set can be described thus: activators of CRF receptor 2 with binding protein – uHTS hits, confirmation (AID 602473). The data set is classed as functional. The settings on record: read-out: EC50_Mean.

Data set [13] deals with T3, Cytochrome P450 1A2 (Homo sapiens, UniProt P05177).
T3 sequence (P05177 whole entry): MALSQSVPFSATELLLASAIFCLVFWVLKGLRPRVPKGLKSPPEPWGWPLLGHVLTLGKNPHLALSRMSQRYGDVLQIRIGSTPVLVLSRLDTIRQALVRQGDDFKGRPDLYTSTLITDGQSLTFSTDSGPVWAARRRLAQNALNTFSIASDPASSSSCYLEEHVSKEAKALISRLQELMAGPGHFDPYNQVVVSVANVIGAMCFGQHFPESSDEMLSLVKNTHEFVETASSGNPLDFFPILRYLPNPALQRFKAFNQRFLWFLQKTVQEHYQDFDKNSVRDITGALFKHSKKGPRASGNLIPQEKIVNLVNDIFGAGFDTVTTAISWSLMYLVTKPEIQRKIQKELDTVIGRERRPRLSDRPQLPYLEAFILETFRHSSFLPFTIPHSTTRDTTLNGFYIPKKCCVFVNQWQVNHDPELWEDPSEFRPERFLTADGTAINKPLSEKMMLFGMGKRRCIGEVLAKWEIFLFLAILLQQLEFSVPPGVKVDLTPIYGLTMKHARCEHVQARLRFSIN

Data set [14] is described as follows: inhibitors of firefly luciferase expression or activity, dose response, H4 neuroglioma cells, luminescence (AID 1990). The class given is functional, cell-based.
Data set [15] can be described thus: inhibitors of SNCA 5'UTR-driven reporter translation, confirmation, H4 neuroglioma cells, luminescence (AID 1988). The data set is classed as functional, cell-based.
Data set [16] deals with T4, RNA-binding protein pos-1 (Caenorhabditis elegans, UniProt G5EF15).
T4 sequence (G5EF15 whole entry): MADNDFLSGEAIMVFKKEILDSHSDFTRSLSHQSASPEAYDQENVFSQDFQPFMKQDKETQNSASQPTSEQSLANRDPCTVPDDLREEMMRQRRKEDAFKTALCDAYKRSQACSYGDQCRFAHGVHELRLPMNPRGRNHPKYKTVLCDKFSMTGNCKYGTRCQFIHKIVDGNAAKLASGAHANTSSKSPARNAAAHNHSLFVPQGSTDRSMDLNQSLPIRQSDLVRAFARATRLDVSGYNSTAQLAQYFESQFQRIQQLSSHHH
The data set can be described thus: inhibitors of POS-1/mex-3 RNA binding, dose response, biochemical, fluorescence polarization (AID 1964).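 Note: purified POS-1 fused to maltose binding protein made in E. coli; potency of compounds blocking POS-1 binding to fluorescent RNA.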

The target in data set [17] is T5, Zinc finger protein mex-5 (Caenorhabditis elegans, UniProt Q9XUB2).
T5 sequence (Q9XUB2 whole entry): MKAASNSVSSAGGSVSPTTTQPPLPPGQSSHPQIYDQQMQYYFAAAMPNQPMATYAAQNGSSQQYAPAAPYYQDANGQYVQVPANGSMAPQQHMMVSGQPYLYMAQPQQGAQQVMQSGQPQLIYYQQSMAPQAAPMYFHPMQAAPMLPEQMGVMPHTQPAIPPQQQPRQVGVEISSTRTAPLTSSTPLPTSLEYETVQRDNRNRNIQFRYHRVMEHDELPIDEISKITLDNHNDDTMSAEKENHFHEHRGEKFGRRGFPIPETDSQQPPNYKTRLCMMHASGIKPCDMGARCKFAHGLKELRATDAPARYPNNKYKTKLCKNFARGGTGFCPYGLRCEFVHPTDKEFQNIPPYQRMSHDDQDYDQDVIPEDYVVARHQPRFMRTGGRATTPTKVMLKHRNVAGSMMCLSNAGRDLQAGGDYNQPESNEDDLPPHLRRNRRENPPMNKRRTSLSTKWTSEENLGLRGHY
Put plainly: MEX-5/TCR-2 RNA interaction inhibitors, dose response, biochemical, C. elegans, fluorescence polarization (AID 1960).

Chain of Cytochrome P450 2C19 (P33261 whole entry): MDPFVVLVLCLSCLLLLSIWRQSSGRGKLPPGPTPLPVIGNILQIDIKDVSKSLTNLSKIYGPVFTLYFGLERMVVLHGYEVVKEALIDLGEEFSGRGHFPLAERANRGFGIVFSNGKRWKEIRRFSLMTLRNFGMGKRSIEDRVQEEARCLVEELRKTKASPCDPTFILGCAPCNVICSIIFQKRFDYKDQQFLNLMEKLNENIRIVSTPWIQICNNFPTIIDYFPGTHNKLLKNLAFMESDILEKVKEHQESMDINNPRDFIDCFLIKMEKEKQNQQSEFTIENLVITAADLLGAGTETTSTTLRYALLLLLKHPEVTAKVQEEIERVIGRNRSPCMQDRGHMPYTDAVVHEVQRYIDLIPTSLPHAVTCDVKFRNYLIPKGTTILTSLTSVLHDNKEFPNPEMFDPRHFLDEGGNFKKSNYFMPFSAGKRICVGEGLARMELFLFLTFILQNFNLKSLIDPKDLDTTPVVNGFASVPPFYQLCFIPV

Regarding `O=C(O)/C=C\C(=O)NCc1ccccc1`, the figures for the AC50 in data set [1] (read-out: AC50) and in data set [2] were 0.0158 µM (inconclusive) and 0.794 µM (inconclusive), respectively.

In the case of `C/C(=N/OC(=O)c1ccc(C)cc1)c1cccs1`, the EC50 in data set [3] was 1.22 µM (active); in data set [4], 5.14 µM (active).

For the compound `CC(C)(C)c1ccc(C(=O)NNc2ccc(F)cc2F)cc1`, the EC50 in data set [5] was 32.2 µM (active); in [6], > 38 µM (not active).

With `CCC/C=C(\CCC)C(NC(=O)c1ccc(C(=O)OC)cc1)c1ccc(C(=O)OC)cc1` (centres undefined), the AC50 in data set [1] (read-out: AC50) is 10 µM (inconclusive); in data set [2], 25.1 µM (inconclusive).

Regarding `O=C(CSc1nnc(-c2cccs2)n1-c1ccccc1)N1CCCC1`, the AC50 in [1] (read-out: AC50) was 28.2 µM (inconclusive); in data set [2], 7.94 µM (inconclusive); in data set [7], 28.2 µM (inconclusive); in data set [8] it was 12.6 µM (inconclusive).

Turning to `CCCS(=O)(=O)N1CCCC(C(=O)NCC2CCCO2)C1` (centres undefined), the values for the AC50 in data set [1] (read-out: AC50) and in data set [8] were 39.8 µM (inconclusive) and 8.91 µM (inconclusive), respectively.

On to `COc1ccnc(Oc2cccc(C(F)(F)F)c2)c1C(=O)N=CNOCc1ccccc1F`, for which the EC50 in [5] is > 150 µM (inactive); in [6], > 38 µM (not active).

`COc1cc(C(=O)Nc2ccc(-c3nnc(-c4ccco4)o3)cc2)cc(OC)c1OC`: the results for the AC50 in [1] (read-out: AC50) and in data set [8] were 6.31 µM (inconclusive) and 7.94 µM (inconclusive), respectively.

Regarding `CC(=O)NNC(=S)NC(=O)C(c1ccccc1)c1ccccc1`, the EC50 was > 150 µM (inactive) in data set [5]; 3.24 µM (active) in data set [9]; > 150 µM (not active) in [10]; 1.52 µM (active) in [6]; 10.4 µM (active) in data set [11].

For `CC(C)NS(=O)(=O)c1ccc(NC(=O)C(C)Oc2ccc(C(=O)c3ccccc3)cc2)cc1` (centres undefined), in [12], the EC50 is 4.6 µM (active).

Take `Cc1ccc(C)c(NC(S)=NNC(=O)c2csc3c2CCC(C)C3)c1` (centres undefined): the EC50 was > 150 µM (inactive) in data set [5] and 3.32 µM (active) in data set [6].

`Cc1ccc(C(=O)NC(=S)NNC(=O)c2cccc([N+](=O)[O-])c2)cc1`: the EC50 in data set [9] is 1.53 µM (active); in [10] it was > 150 µM (not active); in [11] it was 21.7 µM (active); in data set [12], 2.89 µM (active).

Regarding `COc1ccc(OC)c2nc(O)c(CCNS(=O)(=O)c3ccccc3)cc12`, the AC50 was 3.16 µM (inconclusive) in data set [1] (read-out: AC50), 14.1 µM (inconclusive) in data set [7] and 14.1 µM (inconclusive) in [8].

Take `COc1ccc(CNCCNC(=O)c2ccco2)c(OC)c1OC`: the EC50 was > 160 µM (inactive) in data set [5] and > 38 µM (not active) in [6].

Regarding `COc1cccc(Cn2c(=O)c(-c3ccccc3)nc3cnc(OC)nc32)c1`, the AC50 in data set [1] (read-out: AC50) was 39.8 µM (inconclusive); in [2], 39.8 µM (inconclusive); in [13], 15.8 µM (inconclusive).

In the case of `O=C(COC(=O)CC(c1ccccc1)c1ccccc1)NCc1ccc(Cl)cc1`, the EC50 in data set [12] is > 53 µM (inactive).

As to `CCN(CC)C(=O)CSc1nnc(C2CCCCC2)o1`, in [1] (read-out: AC50), the AC50 was 11.2 µM (inconclusive).

As to `COc1ccccc1-c1ccc2ncnc(N3CCN(C)CC3)c2c1`, the AC50 in data set [1] (read-out: AC50) was 15.8 µM (inconclusive); in data set [2], 39.8 µM (inconclusive).

`Nc1ccn([C@@H]2O[C@H](CO)[C@@H](O)[C@@H]2O)c(=O)n1` [CYTARABINE HYDROCHLORIDE]: the EC50 in [14] and in data set [15] was < 0.1 µM (active) each time.

For `COc1ccc(/N=C/c2c(O)c3ccccc3n2C(C)=O)cc1`, the figures for the EC50 in data set [16], in data set [17] and in data set [12] were > 300 µM (inconclusive), > 300 µM (inconclusive) and 6.35 µM (active), respectively.

Take `OCCN1CCN(CCC=C2c3ccccc3Sc3ccc(Cl)cc32)CC1` [ZUCLOPENTHIXOL]: the results for the AC50 in data set [1] (read-out: AC50), in data set [2] and in data set [7] were 2.51 µM (inconclusive), 10 µM (inconclusive) and 12.6 µM (inconclusive), respectively.

Consider `CCCC[C@@H]1C[C@H]1C(NC(=O)c1cccs1)c1ccc(-c2ccccc2)cc1` (some centres undefined), for which the AC50 in data set [1] (read-out: AC50) is 3.16 µM (inconclusive); in data set [13], 2 µM (inconclusive); in data set [7] it was 6.31 µM (inconclusive).

Regarding `CCCCNCCOCCSc1ccc(Cl)cc1`, the AC50 is 17.8 µM (inconclusive) in [1] (read-out: AC50) and 14.1 µM (inconclusive) in data set [7].

`O=C(COC(=O)c1[nH]nc2ccccc12)Nc1cccc(S(=O)(=O)N2CCOCC2)c1`: the EC50 in data set [4] was > 112 µM (not active).

Turning to `CCOC(=O)Cc1csc(NC(=O)CSc2nnc(-c3ccc(NS(=O)(=O)CC)cc3)o2)n1`, the EC50 in data set [5] was > 150 µM (inactive); in [6], > 38 µM (not active).

Take `CC(CP(=O)(O)O)NC(=O)Cc1ccccc1` (centres undefined): in data set [1], the AC50 entry is on record as “inconclusive”.
